Results published in article PMC7000521, “Hazard Characterization of Synthetic Cathinones Using Viability, Monoamine Reuptake, and Neuronal Activity Assays” (Frontiers in Neuroscience, 2020).
Like-named read-outs stand apart in the source and are kept apart here.

System: rat primary cortical cultures
Test: MEA recordings of spontaneous neuronal network activity
Type: cell-based
Conditions: for IC50: Rattus norvegicus, value [CI]; for Increased potency to inhibit neuronal activity (MSR, MBR, and MNBR) compared to cathinones lacking the lengthened alkyl chain: acute and prolonged exposure
Method: Rat pups born of timed-pregnant Wistar rats (Envigo, Horst, Netherlands) were sacrificed on postnatal day 0–1 to prepare cortical cultures grown on MEA plates as described previously ([Zwartsen et al., 2018], [2019]). Briefly, a 50 μL drop of cell suspension was added to each well (1 × 10^5 cells/well) of a 48-well MEA plate (Axion BioSystems Inc., Atlanta, GA, United States, M768-GL1-30Pt200) coated with 0.1% polyethyleneimine (PEI). After 2 h, 450 μL dissection medium was added to each well. The day after the isolation (day in vitro 1; DIV1), 450 μL/well dissection medium was replaced with 450 μL/well glutamate medium. At DIV4, 450 μL/well glutamate medium was replaced with 450 μL/well FBS medium (for medium supplements see [Zwartsen et al., 2018], [2019]). Cultures were kept in FBS medium at 37°C, 5% CO2/95% air atmosphere until use at DIV9-10.
Microelectrode array recordings were performed as described in [Zwartsen et al. (2019)]. In short, neuronal activity was measured using a Maestro 768-channel amplifier (Axion BioSystems Inc., Atlanta, GA, United States). Baseline spontaneous neuronal activity was recorded for 30 min at 37°C, after which wells were exposed to selected synthetic cathinones under sterile conditions. Next, neuronal activity was determined during a 30 min “acute exposure” recording. […] Next, exposure medium was replaced with fresh FBS medium and the plate was incubated for 19 h at 37°C, until the 30 min “washout” recording, i.e., 24 h after the start of the exposure.
Effects of 3-MMC, 4-MMC, 4-MEC, pentedrone, 3-MMCinternet, and 4-MECinternet were tested at 1–1000 μM (final concentration). At the day of exposure, stocks and dilutions were freshly made in NB-A FBS medium (for medium supplements see [Zwartsen et al., 2019]). Data on methylone, α-PVP, and MDPV exposure have been published previously in [Zwartsen et al. (2019)]. For each experimental condition, primary cultures from two to three different isolations were used and tested in four to five plates (Nplates). The number of wells (nwells) represents the number of replicates per condition.
Microelectrode array data were analyzed as described in [Zwartsen et al. (2019)]. In short, parameters of interest after acute exposure were expressed as a percentage of the parameters prior to exposure to obtain a treatment ratio for each well (paired comparison; parameterexposure/parameterbaseline as % of control wells). The parameters after prolonged exposure and washout were also expressed as a percentage of the baseline parameters. Next, treatment ratios were grouped per parameter, condition, drug [e.g., mean spike rate (MSR) 10 μM 3-MMC] and exposure scenario (acute, prolonged, or washout).
Outliers (>mean ± 2×SD) for MSR (5.0%) were used to exclude wells on all parameters. Outliers for mean burst rate (MBR; 2.6%) and mean network burst rate (MNBR; 1.4%) were used to exclude wells on specific parameters (burst, network burst, and synchronicity parameters, or network burst and synchronicity parameters, respectively). Finally, the acute, prolonged, and washout control treatment ratios were set to 100% and treatment ratios of exposed wells were normalized to the average treatment ratio of medium control wells of the corresponding parameter and exposure scenario. Treatment ratios of exposed wells were averaged per parameter (e.g., MSR), condition (e.g., 100 μM), drug (e.g., methylone), and exposure scenario (e.g., acute exposure) and used for further statistical analyses [see [Zwartsen et al. (2019)] for more details on criteria, parameters, and exposure scenarios]. Neuronal activity (as % of control) is expressed as mean ± SEM of nwells from Nplates. As the spike, burst, and network burst rates were among the most sensitive parameters, these parameters are presented in the manuscript. Additional parameters are presented in Supplementary Figure 2.
Concentration–response curves were made for transporter, MEA, and cell viability assays. […]

[1] = 0.5 h, acute exposure 30 min, read-out: Neuronal activity IC50, mean burst rate (MBR), acute
[2] = 0.5 h, acute exposure 30 min, read-out: Neuronal activity IC50, mean network burst rate (MNBR), acute
[3] = 0.5 h, acute exposure 30 min, read-out: Neuronal activity IC50, mean spike rate (MSR), acute
[4] = 19 h washout, 24 h after start of exposure, read-out: Neuronal activity IC50, mean burst rate (MBR), recovery
[5] = 19 h washout, 24 h after start of exposure, read-out: Neuronal activity IC50, mean network burst rate (MNBR), recovery
[6] = 19 h washout, 24 h after start of exposure, read-out: Neuronal activity IC50, mean spike rate (MSR), recovery
[7] = prolonged exposure 4.5 h, read-out: Neuronal activity IC50, mean burst rate (MBR), prolonged
[8] = prolonged exposure 4.5 h, read-out: Neuronal activity IC50, mean network burst rate (MNBR), prolonged
[9] = prolonged exposure 4.5 h, read-out: Neuronal activity IC50, mean spike rate (MSR), prolonged

Row | SMILES | IC50 [1] | IC50 [2] | IC50 [3] | IC50 [4] | IC50 [5] | IC50 [6] | IC50 [7] | IC50 [8] | IC50 [9] | Increased potency to inhibit neuronal activity (MSR, MBR, and MNBR) compared to cathinones lacking the lengthened alkyl chain | Neuronal activity following washout (highest concentration (1000 μM), washout 24 h after start of exposure)
1 | CNC(C)C(=O)c1cccc(C)c1 (centres unmarked) [3-MMC, 2-(methylamino)-1-(3-methylphenyl) propan-1-one] | 79 µM | 67 µM | 65 µM | > 1000 µM | > 1000 µM | – | – | – | – | – | –
2 | CCNC(C)C(=O)c1ccc(C)cc1 (centres unmarked) [4-MEC, 2-(ethylamino)-1-(4-methylphenyl) propan-1-one] | 74 µM | 68 µM | 73 µM | > 1000 µM | > 1000 µM | > 1000 µM | – | – | – | – | –
3 | CNC(C)C(=O)c1ccc(C)cc1 (centres unmarked) [4-MMC, 2-(methylamino)-1-(4-methylphenyl) propan-1-one] | 118 µM | 120 µM | 101 µM | > 1000 µM | > 1000 µM | > 1000 µM | 147 µM | 167 µM | 114 µM | – | –
4 | CCCC(C(=O)c1ccc2c(c1)OCO2)N1CCCC1 (centres unmarked) [MDPV, 1-(1,3-benzodioxol-5-yl)-2-pyrro lidin-1-ylpentan-1-one] | – | – | – | – | – | – | – | – | – | two to fourfold | –
5 | CCCC(NC)C(=O)c1ccccc1 (centres unmarked) [Pentedrone, 2-(methylamino)-1-phenyl pentan-1-one] | 26 µM | 23 µM | 23 µM | – | – | – | 28 µM | 28 µM | 27 µM | two to fourfold | remained fully inhibited
